# Data published in US20230340419A1, “METHODS FOR GENERATION OF MOUSE AND HUMAN URETERIC BUD ORGANOIDS AND COLLECTING DUCT ORGANOIDS” (University of Southern California, priority 2020, published 2023).
# How the values were obtained:
# Type in all cases: cell-based, mouse
# [1] = system: Wnt11-RFP UB organoid; experiment: Stage III 1st round screening of growth factors and small molecules for UB organoid culture condition; conditions: for Wnt11-RFP / Organoid growth: reagent added to FGF9 + C3 + TTNPB + GDNF, compared to that control group; for Effect when used individually: individual versus combinatorial use of JAKI and SB202190
# Excerpt: We employed this Wnt11-RFP reporter system as a readout to screen for a culture condition that maintained the progenitor identity of UPCs in vitro. T-shaped UBs were manually isolated from E11.5 kidneys of Wnt11-RFP mice, and immediately embedded into Matrigel to set up a 3D culture platform that supported epithelial branching. In this 3D culture format, built on previous efforts towards the ex vivo culture of UB, hundreds of different combinations of growth factors and small molecules were tested (see also the Materials and Techniques section below for details under subheading “Screening for optimal UB culture condition”).
# We systematically screened the optimal UB culture condition in four different stages (Stages I-IV).
# In Stage III, based on the optimized recipe consisting of FGF9, TTNPB, CHIR99021 (3 μM) and GDNF, we preformed our 1st round of screening of growth factors and small molecules targeting major developmental pathways (e.g. TGF-β, BMP, Wnt, FGF, Hedgehog and Notch) and others. The branching morphogenesis, growth rate and Wnt11-RFP were recorded as readouts (Table 1). […] Representative images were taken at least for LDN193189, A83-01, and R-Spondin 1. These individual hits were then subjected to a 2nd round of screening to test their effects in various combinations, eventually leading to the identification of the optimal UB progenitor culture medium UBCM consisting of FGF9, TTNPB, CHIR99021 (3 μM), GDNF, LDN193189, A83-01, R-Spondin1, JAKI and SB202190.
# [2] = system: UB organoids; experiment: 2nd round of CD differentiation condition screening (qRT-PCR of Aqp2 and Foxi1); conditions: for Aqp2 expression / Foxi1 expression: qRT-PCR, 7 days, under hBI+FGF9+Y27632 condition
# Experimental: The functions of the mature renal CD system are carried out by two major cell populations that are intermingled throughout the entire CD network. The more abundant principal cells (PCs) concentrate the urine and regulate Na^+/K^+ homeostasis via water and Na^+/K^+ transporters. The less abundant α- and β-intercalated cells (ICs) regulate normal acid-base homeostasis via secretion of H^+ or HCO3^− into the urine. The absence of an in vitro system recapitulating PC and IC development in an appropriate 3D context, constrains physiological exploration, disease modeling and drug screening on the renal CD system. With this limitation in mind, we developed a screen to establish conditions supporting the differentiation of CD organoids, assaying expression of Aqp2 and Foxi1, definitive markers for PC and IC lineages, respectively, by quantitative reverse transcription PCR (qRT-PCR), following 7 days of culture under variable but defined culture conditions (FIG. 2A).
# Agonists or antagonists targeting major developmental pathways (e.g. TGF-β, BMP, Wnt, FGF, Hedgehog and Notch) were tested, together with hormonal inputs known to regulate PC or IC activity (aldosterone and vasopressin).
# [3] = system: Wnt11-RFP UB organoid; experiment: Withdrawal of individual components from UBCM (Stage IV validation); conditions: component withdrawn from UBCM
# Excerpt: To determine whether UBCM culture conditions enabled clonal growth from a single UPC, dissociated E11.5 UBs were embedded at clonal density in Matrigel and cultured in UBCM medium. Around 30% of the single cells self-organized into E11.5 UB-like budding structures within 5 days, though a smaller percentage (3-5%) maintained Wnt11-RFP (FIG. 1G), an efficiency similar to clonal organoid formation for Lgr5^+ intestinal stem cells. Importantly, the clonally-derived Wnt11-RFP^+ budding structures were identical to intact E11.5 UB-derived organoids in both branching morphology and growth rate (Table 3, FIG. 1H).
# Lastly, in Stage IV, we asked whether each of the components in UBCM was essential.
# [4] = system: Wnt11-RFP UB; experiment: Stage II optimisation of individual UB medium components; conditions: titrated at 1, 3 and 6 μM
# Excerpt: In Stage II, we optimized the individual medium components employed by Yuri et al. (FGF1, RA, CHIR99021, and GDNF). We first asked if each individual factor was necessary in the medium. […] Then we further optimized these factors. RA is known to be unstable in tissue culture, so we replaced it with another widely used small molecule RA substitute TTNPB. CHIR99021 was used at 1p M by Yuri et al., but based on our own experiences and literature, different doses of CHIR99021 often have different biological effects. So we titrated it from 1p M, 3p M, to 6 μM, from which we identified 3 μM to be the optimal concentration. […] GDNF was unchanged in the medium, considering its essential role in maintaining the UB progenitor population in vitro and in vivo.
compound,measurement,setting,value
"EGF: epidermal growth factor (NSDSECPLSHDGYCLHDGVCMYIEALDKYACNCVVGYIGERCQYRDLKWWELR; Epidermal growth factor; UniProt P01133 971-1023, looked up)",Wnt11-RFP,[1],Better
CN1C(=O)c2sccc2N(C)c2nc(Nc3ccc(S(N)(=O)=O)cc3)ncc21 [XMU-MP-1],Organoid growth,[1],No growth
c1ccc2c(-c3cnn4cc(-c5ccc(N6CCNCC6)cc5)cnc34)ccnc2c1 [LDN193189],Wnt11-RFP,[1],Better
O=C(NOC[C@H](O)CO)c1ccc(F)c(F)c1Nc1ccc(I)cc1F [PD0325901],Aqp2 expression,[2],dramatically increased
same,Foxi1 expression,[2],dramatically increased
same,Organoid growth,[1],No growth
same,Wnt11-RFP,[1],Dead at D 6
CN(C)C(=N)NC(=N)N [Melformin],Wnt11-RFP,[1],Slightly Better
NC(=O)CC[C@@H]1NC(=O)[C@H](Cc2ccccc2)NC(=O)[C@H](Cc2ccc(O)cc2)NC(=O)[C@@H](N)CSSC[C@@H](C(=O)N2CCC[C@H]2C(=O)N[C@@H](CCCN=C(N)N)C(=O)NCC(N)=O)NC(=O)[C@H](CC(N)=O)NC1=O [Vasopressin],Aqp2 expression,[2],enhanced
Heparin,Wnt11-RFP,[1],Slightly Better
Cc1c[nH]c(-c2cnc(NCCNc3ccc(C#N)cn3)nc2-c2ccc(Cl)cc2Cl)n1 [CHIR99021],Effect of withdrawal of the component from UBCM on organoid growth,[3],growth arrest
same,Optimal concentration,[4],3 µM
NC(=O)c1ncn([C@@H]2O[C@H](CO)[C@@H](O)[C@H]2O)c1N [AICAR],Wnt11-RFP,[1],Slighty Better
SCF: growth factor tested in screening,Organoid growth,[1],Slightly better
same,Wnt11-RFP,[1],Better
FGF2: member of the FGF family,Wnt11-RFP,[1],Worse
CC(C)(C)c1nc2c3cc[nH]c(=O)c3c3cc(F)ccc3c2[nH]1 [JAKI],Aqp2 expression,[2],dramatically increased
same,Foxi1 expression,[2],dramatically increased
same,Effect when used individually,[1],only marginal effects
same,Wnt11-RFP,[1],Slightly Better
FGF20: member of the FGF family,Wnt11-RFP,[1],Worse
Oc1ccc(-c2nc(-c3ccncc3)c(-c3ccc(F)cc3)[nH]2)cc1 [S6202190],Effect when used individually,[1],only marginal effects
same,Wnt11-RFP,[1],Slightly Better
C[C@H](NC(=O)Cc1cc(F)cc(F)c1)C(=O)N[C@H](C(=O)OC(C)(C)C)c1ccccc1 [DAPT],Aqp2 expression,[2],dramatically increased
same,Foxi1 expression,[2],dramatically increased
same,Wnt11-RFP,[1],Better
Verteporfin,Organoid growth,[1],Dead
Activin A: growth factor tested in screening,Note,[2],Dramatic
same,Organoid growth,[1],Slower
same,Wnt11-RFP,[1],Worse
C[C@]12CCC(=O)C=C1CC[C@@H]1[C@@H]2[C@@H](O)C[C@]2(C=O)[C@@H](C(=O)CO)CC[C@@H]12 [Aldosterone],Foxi1 expression,[2],preferential increase
Cc1cccc(-c2nn(C(=S)Nc3ccccc3)cc2-c2ccnc3ccccc23)n1 [A83-01],Wnt11-RFP,[1],Better
